Assay results from ChEMBL document CHEMBL5131473, “One-pot synthesis of oxoaporphines as potent antitumor agents and investigation of their mechanisms of actions” (Eur J Med Chem, 2022).
pIC50: −log10 of the molar value. Active and inactive are the calls of the source. No cut-off for these calls is given here.

Legend:
[1] = test system: WI-38; assay: Cytotoxicity against human WI-38 cells by MTT assay; format: toxicity, cell-based
[2] = Toxicity in BALB/C nude mouse xenografted with human T24 cells assessed as effect on liver at 30 mg/kg, IG administered every 2 days for 14 days by H and E staining based assay; format: organism-based, T-24; details: in vivo, po, 336 h, time 14 day
[3] = Toxicity in BALB/C nude mouse xenografted with human T24 cells assessed as effect on lung at 30 mg/kg, IG administered every 2 days for 14 days by H and E staining based assay; format: organism-based, T-24; details: in vivo, po, 336 h, time 14 day
[4] = Toxicity in BALB/C nude mouse xenografted with human T24 cells assessed as effect on kidney at 30 mg/kg, IG administered every 2 days for 14 days by H and E staining based assay; format: organism-based, T-24; details: in vivo, po, 336 h, time 14 day
[5] = test system: HepG2; assay: Antiproliferative activity against human HepG2 cells assessed as cell growth inhibition measured after 48 hrs by MTT assay; format: functional, cell-based; details: HepG2, 48 h
[6] = test system: MGC-803; assay: Antiproliferative activity against human MGC-803 cells assessed as cell growth inhibition measured after 48 hrs by MTT assay; format: functional, cell-based; details: MGC-803, 48 h
[7] = test system: T-24; assay: Antiproliferative activity against human T24 cells assessed as cell growth inhibition measured after 48 hrs by MTT assay; format: functional, cell-based; details: T-24, 48 h
[8] = test system: SK-OV-3; assay: Antiproliferative activity against human SK-OV-3 cells assessed as cell growth inhibition measured after 48 hrs by MTT assay; format: functional, cell-based; details: SK-OV-3, 48 h
[9] = test system: WI-38; assay: Antiproliferative activity against human WI-38 cells assessed as cell growth inhibition measured after 48 hrs by MTT assay; format: functional, cell-based; details: WI-38, 48 h
[10] = test system: T-24; assay: Cytotoxicity against human T24 cells assessed as decrease in cell viability measured after 48 hrs by MTT assay; format: toxicity, cell-based; details: t-24, 48 h, 20 µM, DDE = dose-dependent effect
[11] = test system: T-24; assay: Induction of cell cycle arrest in human T24 cells assessed as increase in Cyclin B expression at 10 to 15 uM incubated for 24 hrs by chemiluminescence based Western blotting analysis; format: functional; details: dose 10-15 µM, DDE = dose-dependent effect
[12] = test system: T-24; assay: Induction of mitochondrial membrane potential dysfunction in human T24 cells assessed as depolarised cells at 15 uM incubated for 24 hrs by JC-1 staining based flow cytometry (reference value: 6.20%); format: functional
[13] = test system: T-24; assay: Induction of mitochondrial membrane potential dysfunction in human T24 cells assessed as shrinking mitochondria at 10 uM incubated for 24 hrs by TEM analysis; format: functional, cell-based
[14] = test system: T-24; assay: Induction of mitochondrial mediated apoptosis in human T24 cells assessed as increase in Bak protein expression at 10 to 15 uM incubated for 24 hrs by Western blotting analysis; format: functional, cell-based; details: dose 10-15 µM
[15] = test system: T-24; assay: Induction of mitochondrial Ca2+ production in human T24 cells assessed as increase in intracellular Ca2+ concentration at 10 uM by Rhod2-AM staining based fluorescence microscopic method; format: functional, cell-based
[16] = test system: T-24; assay: Induction of apoptosis in human T24 cells assessed as increase in caspase 3 activity at 15 uM (Rvb= 3.1%); format: functional
[17] = test system: T-24; assay: Induction of apoptosis in human T24 cells assessed as increase in caspase 9 activity at 10 uM (Rvb= 7.2%); format: functional
[18] = test system: T-24; assay: Antitumor activity against human T24 cells xenografted in BALB/c nude mouse assessed as reduction in tumor volume at 30 mg/kg, IG administered every 2 days for 14 days; format: functional; details: time 14 day
[19] = test system: T-24; assay: Antitumor activity against human T24 cells xenografted in BALB/c nude mouse assessed as tumor growth inhibition at 30 mg/kg, IG administered every 2 days for 14 days; format: functional; set-up: scale not given: the % may be the effect or the level left; details: time 14 day
[20] = Toxicity in BALB/C nude mouse xenografted with human T24 cells assessed as decrease in body weight at 30 mg/kg, IG administered every 2 days for 14 days; format: organism-based, T-24; details: in vivo, po, 336 h, time 14 day
[21] = Toxicity in BALB/C nude mouse xenografted with human T24 cells assessed as effect on heart at 30 mg/kg, IG administered every 2 days for 14 days by H and E staining based assay; format: organism-based, T-24; details: in vivo, po, 336 h, time 14 day
[22] = test system: T-24; assay: Antitumor activity against human T24 cells xenografted in BALB/c nude mouse assessed as inhibition of tumor metastasis in liver at 30 mg/kg, IG administered every 2 days for 14 days; format: functional, organism-based; details: time 2.0 day
[23] = test system: T-24; assay: Induction of apoptosis in human T24 cells assessed as late apoptotic cells at 10 uM incubated for 24 hrs by Annexin-V/PI staining based flow cytometry analysis (reference value: 0.543 %); format: functional
[24] = test system: T-24; assay: Induction of apoptosis in human T24 cells assessed as late apoptotic cells at 15 uM incubated for 24 hrs by Annexin-V/PI staining based flow cytometry analysis (reference value: 0.543 %); format: functional
[25] = test system: WI-38; assay: Induction of apoptosis in human WI-38 cells at IC50; format: toxicity, cell-based
[26] = test system: T-24; assay: Induction of mitochondrial membrane potential dysfunction in human T24 cells assessed as depolarised cells at 0.5 uM incubated for 24 hrs by JC-1 staining based flow cytometry (reference value: 6.20%); format: functional
[27] = test system: T-24; assay: Induction of mitochondrial mediated apoptosis in human T24 cells assessed as upregulation of cytochrome c expression at 0.5 to 1 uM incubated for 24 hrs by Western blotting analysis; format: functional, cell-based; details: dose 0.5-1 µM
[28] = test system: T-24; assay: Induction of apoptosis in human T24 cells assessed as increase in caspase 3 activity at 0.5 uM (Rvb= 3.1%); format: functional
[29] = test system: T-24; assay: Induction of apoptosis in human T24 cells assessed as increase in caspase 3 activity at 1 uM (Rvb= 3.1%); format: functional
[30] = test system: T-24; assay: Induction of cell cycle arrest in human T24 cells assessed as accumulation of cells at S phase at 0.5 uM incubated for 24 hrs by propidium iodide/RNase A staining based flow cytometry analysis (reference value: 42.47 %); format: functional
[31] = test system: T-24; assay: Induction of apoptosis in human T24 cells assessed as necrotic cells at 2 uM incubated for 24 hrs by Annexin-V/PI staining based flow cytometry analysis (reference value: 1.92 %); format: functional
[32] = test system: T-24; assay: Induction of apoptosis in human T24 cells assessed as late apoptotic cells at 2 uM incubated for 24 hrs by Annexin-V/PI staining based flow cytometry analysis (reference value: 0.543 %); format: functional
[33] = test system: T-24; assay: Induction of apoptosis in human T24 cells assessed as early apoptotic cells at 2 uM incubated for 24 hrs by Annexin-V/PI staining based flow cytometry analysis (reference value: 3.27 %); format: functional
[34] = test system: T-24; assay: Induction of apoptosis in human T24 cells assessed as viable cells at 2 uM incubated for 24 hrs by Annexin-V/PI staining based flow cytometry analysis (reference value: 94.3 %); format: functional; details: read-out: Activity
[35] = test system: T-24; assay: Induction of cell cycle arrest in human T24 cells assessed as upregulation of Cyclin E expression at 2 to 4 uM incubated for 24 hrs by chemiluminescence based Western blotting analysis; format: functional; details: dose 2-4 µM
[36] = test system: T-24; assay: Induction of cell cycle arrest in human T24 cells assessed as upregulation of CDK2 expression at 2 to 4 uM incubated for 24 hrs by chemiluminescence based Western blotting analysis; format: functional; details: dose 2-4 µM
[37] = test system: T-24; assay: Induction of cell cycle arrest in human T24 cells assessed as accumulation of cells at G2/M phase at 4 uM incubated for 24 hrs by propidium iodide/RNase A staining based flow cytometry analysis (reference value: 5.82 %); format: functional

Row | Structure (SMILES) | Activity [1] | Activity [2] | Activity [3] | Activity [4] | pIC50 [5] | pIC50 [6] | pIC50 [7] | pIC50 [8] | pIC50 [9] | Activity [10] | Activity [18] [mm3] | Activity [19] [%] | Activity [20] | Activity [21] | Activity [22] | Activity [25] | Activity [31] [%] | Activity [32] [%] | Activity [33] [%] | viability at 2 µM [34] [%] | further results
1 | O=C1c2ccccc2-c2cccc3ccnc1c23 | Non-Toxic | Non-Toxic | Non-Toxic | Non-Toxic | 4.91 | 4.90 | 5.02 | 4.43 | 4.69 | Dde | 722.033 | 40.8 | Non-Toxic | Non-Toxic | Active | Non-Toxic |  |  |  |  | Activity [11]: Dde; Activity [12]: 25.6%; Activity [13]: Active; Activity [14]: Active; Activity [15]: Active; Activity [16]: 25.5%; Activity [17]: 24.8%; Activity [23]: 3.25%; Activity [24]: 6.56%
2 | O=C1c2ccccc2-c2ccc([N+](=O)[O-])c3ccnc1c23 | Non-Toxic | Non-Toxic | Non-Toxic | Non-Toxic | 5.89 | 5.96 | 6.30 | 5.05 | 4.83 | Dde | 605.28 | 49.5 | Non-Toxic | Non-Toxic | Active | Non-Toxic | 0.914 | 8.68 | 57.7 | 32.7 | Activity [26]: 37%; Activity [27]: Active; Activity [28]: 30.6%; Activity [29]: 38.8%; Activity [30]: 47.37%
3 | O=C1c2cc([N+](=O)[O-])ccc2-c2ccc([N+](=O)[O-])c3ccnc1c23 | Non-Toxic | Non-Toxic | Non-Toxic | Non-Toxic | 5.66 | 5.64 | 5.70 | 4.80 | 4.69 | Dde | 846.52 | 30.7 | Non-Toxic | Non-Toxic | Active | Non-Toxic | 1.97 | 4.79 | 27.4 | 65.8 | Activity [35]: Active; Activity [36]: Active; Activity [37]: 14.18%
